From patent US3993642A, “Penicillins” (Bayer Aktiengesellschaft, priority 1973, dated 1976) come the findings set out here.

One data set has as its system Pseudomonas Walter. Kind of data set: MIC, test tube series dilution test. Conditions: 24 hours, 37°C, liquid medium.
For another data set, the system named is Pseudomonas F 41. Put plainly: MIC, test tube series dilution test. The data set is classed as cell-based. Conditions: 24 hours, 37°C, liquid medium. The text has this: |D(+) Dextrose (Merck) 10 g
Another data set concerns Aeromonas hydrophila sp. Put plainly: Freedom from cloudiness in Muller-Hinton broth. In kind it is cell-based. Conditions: 100 μg/ml, 24 hours.
The test system of a further data set is Bacteroides sp. Kind of data set: Freedom from cloudiness in Muller-Hinton broth. In kind it is cell-based. The following applies: 100 μg/ml, 24 hours.
Data set [1] relates to Proteus, indole-positive, sp. Put plainly: Freedom from cloudiness in Muller-Hinton broth. In kind it is cell-based. The following applies: 100 μg/ml, 24 hours.
In another data set the test system is Clostridium botulinium. The data set is classed as cell-based. The following applies: 100 μg/ml, 24 hours.
Data set [2] concerns Bordetella bronchiseptica. Kind of data set: Freedom from cloudiness in Muller-Hinton broth. Conditions: 100 μg/ml, 24 hours. The data set is classed as cell-based.
For another data set, the system named is Klebsiella K 10. Put plainly: Freedom from cloudiness in Muller-Hinton broth. In kind it is cell-based. Conditions: 100 μg/ml, 24 hours.
In a further data set the test system is Haemophilus influenzae. Kind of data set: Freedom from cloudiness in Muller-Hinton broth. The data set is classed as cell-based. Conditions: 100 μg/ml, 24 hours.
For another data set, the system named is Enterococcus sp. Put plainly: Freedom from cloudiness in Muller-Hinton broth. In kind it is cell-based. Conditions: 100 μg/ml, 24 hours.
The subject of the next data set is E.coli 26/6. Kind of data set: MIC, test-tube dilution method.
Data set [3] deals with Diplococcus pneumoniae sp. Kind of data set: Freedom from cloudiness in Muller-Hinton broth. The data set is classed as cell-based. Conditions: 100 μg/ml, 24 hours.
The subject of a further data set is Shigella sp. Put plainly: Freedom from cloudiness in Muller-Hinton broth. In kind it is cell-based. The following applies: 100 μg/ml, 24 hours. As to the method:
(§1) The compounds of the invention are also active against other genera of bacteria. This is shown by the following experiment, which was carried out with the compound of Example 1.
(§2) The compound of Example 1 was diluted to 100 μg/ml with Muller-Hinton nutrient broth, with the addition of 0.1% glucose. The nutrient solution in each case contained 1 × 10^5 to 2 × 10^5 bacteria per milliliter. The test tubes containing this mixture was incubated for 24 hours in each case and the degree of cloudiness was subsequently determined.

Data set [4] has as its system Pasteurella psuedotuberculosis. Put plainly: Freedom from cloudiness in Muller-Hinton broth. In kind it is cell-based. Conditions: 100 μg/ml, 24 hours. The procedure:
as §1, §2

For a further data set, the system named is Salmonella sp. Put plainly: Freedom from cloudiness in Muller-Hinton broth. The following applies: 100 μg/ml, 24 hours. In kind it is cell-based. As to the method:
as §1, §2

The test system of another data set is Clostridium tetani. The data set is classed as cell-based. The following applies: 100 μg/ml, 24 hours.
The test system of data set [5] is Corynebacterium pyogenes M. Kind of data set: Freedom from cloudiness in Muller-Hinton broth. In kind it is cell-based. The following applies: 100 μg/ml, 24 hours.
Data set [6] relates to Neisseria catarrhalis sp. Kind of data set: Freedom from cloudiness in Muller-Hinton broth. The following applies: 100 μg/ml, 24 hours. In kind it is cell-based.
Data set [7] relates to Corynebacterium diphteriae gravis. Put plainly: Freedom from cloudiness in Muller-Hinton broth. The following applies: 100 μg/ml, 24 hours. In kind it is cell-based.
In another data set the test system is Borrelia sp. Put plainly: Freedom from cloudiness in Muller-Hinton broth. The data set is classed as cell-based. Conditions: 100 μg/ml, 24 hours.
The subject of the next data set is Klebsiella pneum. Put plainly: MIC, test-tube dilution method.
For another data set, the system named is Klebsiella 63. Put plainly: Freedom from cloudiness in Muller-Hinton broth. The data set is classed as cell-based. Conditions: 100 μg/ml, 24 hours.
Another data set has as its system Proteus vulg. Kind of data set: MIC, test-tube dilution method.
A further data set has as its system Enterococcus ATCC 9790. Kind of data set: MIC, test-tube dilution method.
Data set [8] deals with Proteus, indole-negative, sp. Put plainly: Freedom from cloudiness in Muller-Hinton broth. The following applies: 100 μg/ml, 24 hours. The data set is classed as cell-based.
In a further data set the test system is Lactobacillus sp. Kind of data set: Freedom from cloudiness in Muller-Hinton broth. The data set is classed as cell-based. The following applies: 100 μg/ml, 24 hours.
For a further data set, the system named is Proteus morg. Kind of data set: MIC, test-tube dilution method.
The test system of the next data set is Staphyloccus aureus. Put plainly: Animal experiments with white mice infected intraperitoneally. The data set is classed as in vivo, white mice of strain CF1. The following applies: subcutaneously, 1 × (1 administration, 30 minutes after infection). As to the method:
(§3) The white mice of strain CF1 were infected intraperitoneally with the species of bacteria indicated in each case. |Animal experiments with white mice: |Determination of the ED50 after 24 hours. | Dose in units of the | penicillin compound of | Example 1 per kg, given |Germ subcutaneously |Therapy: | 1 administration: | 30 minutes after infection The ED50 is a dose at which 50% of the infected animals still survive after 24 hours.

Another data set has as its system E. coli C 165. The description is as above. The following applies: subcutaneously, 1 × (1 administration, 30 minutes after infection). The data set is classed as in vivo, white mice of strain CF1. As to the method:
as §3

For the next data set, the system named is Serratia sp. Kind of data set: Freedom from cloudiness in Muller-Hinton broth. In kind it is cell-based. The following applies: 100 μg/ml, 24 hours.
For the next data set, the system named is Brucella sp. In kind it is cell-based. Conditions: 100 μg/ml, 24 hours.
Another data set has as its system Enterobacter sp. Kind of data set: Freedom from cloudiness in Muller-Hinton broth. Conditions: 100 μg/ml, 24 hours. The data set is classed as cell-based.
A further data set concerns E.coli C 165. Kind of data set: Freedom from cloudiness in Muller-Hinton broth. In kind it is cell-based. Conditions: 100 μg/ml, 24 hours.
A further data set deals with E.coli B. Put plainly: MIC, test-tube dilution method. In kind it is cell-based.
The test system of another data set is Proteus vulgaris 1017. Put plainly: Freedom from cloudiness in Muller-Hinton broth. The following applies: 100 μg/ml, 24 hours. The data set is classed as cell-based.
In the next data set the test system is Pseudomonas aeruginosa W. Kind of data set: Animal experiments with white mice infected intraperitoneally. The data set is classed as in vivo, white mice of strain CF1. The following applies: subcutaneously, 4 × (per administration; 30 minutes, 2, 4 and 6 hours after infection). The procedure: (§4) The white mice of strain CF1 were infected intraperitoneally with the species of bacteria indicated in each case. |Animal experiments with white mice: |Determination of the ED50 after 24 hours. | Dose in units of the | penicillin compound of | Example 1 per kg, given |Germ subcutaneously |Therapy: | 4 administrations: | 30 minutes, 2 hours, 4 hours | and 6 hours after infection The ED50 is a dose at which 50% of the infected animals still survive after 24 hours.

In data set [9] the test system is Pseudomonas aeruginosa F 41. Described as above. In kind it is in vivo, white mice of strain CF1. Conditions: subcutaneously, 4 × (per administration; 30 minutes, 2, 4 and 6 hours after infection). As to the method:
as §4

For data set [10], the system named is Staphylococcus aureus 133. Kind of data set: Freedom from cloudiness in Muller-Hinton broth. In kind it is cell-based. The following applies: 100 μg/ml, 24 hours.
Data set [11] deals with Pseudomonas aeruginosa sp. Put plainly: Freedom from cloudiness in Muller-Hinton broth. In kind it is cell-based. Conditions: 100 μg/ml, 24 hours.
The subject of another data set is Streptococcus pyogenes W. Put plainly: Freedom from cloudiness in Muller-Hinton broth. The data set is classed as cell-based. The following applies: 100 μg/ml, 24 hours.
The test system of the next data set is E.coli 14. Kind of data set: Freedom from cloudiness in Muller-Hinton broth. In kind it is cell-based. Conditions: 100 μg/ml, 24 hours.
The test system of another data set is Staph.aureus 133. Kind of data set: MIC, test-tube dilution method.
The nature of data set [12]: Solubility noted during working up. The data set is classed as physicochemical. The text has this:
Yield 42% of sodium D(-) -α-[(3-oxo-4-methyl-pyrazolidin-1-yl)-carbonylamino]-benzylpenicillin.

SMILES strings stand for the structures.

In the case of `CC1CN(C(=O)N[C@@H](C(=O)N[C@@H]2C(=O)N3[C@@H]2SC(C)(C)[C@@H]3C(=O)O)c2ccccc2)NC1=O` (single isomer, unassigned) [Example 11 C, sodium D(-) -α-[(3-oxo-4-methyl-pyrazolidin-1-yl)-carbonylamino]-benzylpenicillin], the MIC in the data set on Pseudomonas Walter was 16 - 64 μ/ml.

For `CC1(C)S[C@@H]2[C@H](NC(=O)[C@H](NC(=O)n3cc(-c4ccccc4)c(=O)[nH]3)c3ccccc3)C(=O)N2[C@H]1C(=O)O` [Example 2 C, sodium D(-)-α-[(4-phenyl-5-oxo-3-pyrazolin-2-yl)-carbonylamino]-penzylpenicillin], the MIC with Pseudomonas Walter and in the data set with Pseudomonas F 41 was 4 μ/ml throughout.

For the compound `Cc1cn(C(=O)N[C@@H](C(=O)N[C@@H]2C(=O)N3[C@@H]2SC(C)(C)[C@@H]3C(=O)O)C2=CCC=CC2)[nH]c1=O` [Example 9, Sodium D(-)-α-[(4-methyl-5-oxo-3-pyrazolin-2-yl)-carbonylamino]-α-(cyclohexa-1,4-dien-1-yl)-methylpenicillin], the MIC in the data set on Pseudomonas Walter was 16 - 32 μ/ml; in the data set with Pseudomonas F 41 it was 8 - 16 μ/ml.

Take `Cc1cn(C(=O)N[C@@H](C(=O)N[C@@H]2C(=O)N3[C@@H]2SC(C)(C)[C@@H]3C(=O)O)c2ccccc2)[nH]c1=O` [Example 1 B, sodium D(-)-α-[(4-methyl-5-oxo-3-pyrazolin-2-yl)-carbonylamino]-benzylpenicillin]: the Freedom from cloudiness result (in the data set on Aeromonas hydrophila sp.; in the data set with Bacteroides sp.; in [1]; in the data set with Clostridium botulinium; in [2]; with Klebsiella K 10) was “free of cloudiness” in each case. In addition, the Freedom from cloudiness entry (in the data set with Haemophilus influenzae; in the data set on Enterococcus sp.; in data set [3]; in the data set with Shigella sp.; in data set [4]; with Salmonella sp.) was “free of cloudiness” each time. Moreover, the Freedom from cloudiness entry (with Clostridium tetani; in [5]; in data set [6]; in data set [7]; with Borrelia sp.; in the data set with Klebsiella 63) was “free of cloudiness” throughout. Besides, the Freedom from cloudiness result (in data set [8]; in the data set on Lactobacillus sp.; with Serratia sp.; in the data set with Brucella sp.; with Enterobacter sp.; with E.coli C 165) was “free of cloudiness” each time. The Freedom from cloudiness result (with Proteus vulgaris 1017; in [10]; in data set [11]; with Streptococcus pyogenes W; in the data set with E.coli 14) was “free of cloudiness” throughout. The MIC stood at 1 U/ml against E.coli 26/6; 8 μ/ml in the data set with Pseudomonas Walter; 128 U/ml in the data set on Klebsiella pneum.; 128 U/ml against Proteus vulg.; 32 U/ml against Enterococcus ATCC 9790; 128 U/ml against Proteus morg.. For the same compound, the MIC in the data set on E.coli B was determined as 32 U/ml; in the data set on Pseudomonas F 41, 8 μ/ml; in the data set with Staph.aureus 133, 0.5 U/ml. In addition, the “ED50 after 24 hours” value in the data set with Staphyloccus aureus was 40,000 units per kg; in the data set with E. coli C 165, 200,000 units per kg; with Pseudomonas aeruginosa W it was 75,000 units per kg; in data set [9], 100,000 units per kg.

On to `Cc1cn(C(=O)N[C@@H](C(=O)N[C@@H]2C(=O)N3[C@@H]2SC(C)(C)[C@@H]3C(=O)O)c2ccc(O)cc2)[nH]c1=O` [Example 8, Sodium D(-)-α-[(4-methyl-5-oxo-3-pyrazolin-2-yl)-carbonylamino]-p-hydroxybenzylpenicillin], for which the values for the MIC against Pseudomonas Walter and in the data set on Pseudomonas F 41 were 8 μ/ml and 8 - 16 μ/ml, respectively.

On to `CC1(C)S[C@@H]2[C@H](NC(=O)[C@H](N)c3ccccc3)C(=O)N2[C@H]1C(=O)O` [Ampicillin, α-aminobenzylpenicillin, reference compound], for which the MIC against Pseudomonas Walter and with Pseudomonas F 41 was above 400 μ/ml throughout.

For the compound `CC1(C)S[C@@H]2[C@H](NC(=O)[C@H](NC(=O)N3CCC(=O)N3)c3ccccc3)C(=O)N2[C@H]1C(=O)O` [Example 10 C, Sodium D(-)-α-[(3-oxo-pyrazolidin-1-yl)-carbonylamino]-benzylpenicillin], the MIC against Pseudomonas Walter is 8 - 16 μ/ml.

For the compound `CC1(C)S[C@@H]2[C@H](NC(=O)[C@H](NC(=O)N3NC(=O)CC3c3ccccc3)c3ccccc3)C(=O)N2[C@H]1C(=O)O` (single isomer, unassigned) [Example 14, sodium D(-)-α-[(3-oxo-5-phenyl-pyrazolidin-1-yl)-carbonylamino]-benzylpenicillin], the MIC against Pseudomonas Walter was 4 - 16 μ/ml.

As to `CC1CN(C(=O)N[C@@H](C(=O)N[C@@H]2C(=O)N3[C@@H]2SC(C)(C)[C@@H]3C(=O)O)c2ccccc2)NC1=O` (single isomer, unassigned) [free penicillic acid, D(-)-α-[(3-oxo-4-methyl-pyrazolidin-1-yl)-carbonylamino]-benzylpenicillin], the “solubility in ethyl acetate” value in data set [12] (ethyl acetate) was “sparingly soluble”. The solubility in water result in data set [12] (water) is on record as “sparingly soluble”.

In the case of `CC1(C)S[C@@H]2[C@H](NC(=O)C(C(=O)O)c3ccccc3)C(=O)N2[C@H]1C(=O)O` (stereo partly drawn) [Carbenicillin, reference compound], the MIC is reported as 200 μ/ml against Pseudomonas Walter and above 200 μ/ml against Pseudomonas F 41.
